Article PMC5501782 (Scientific Reports, 2017)
Non-standard residues stand in square brackets, D forms with d. Residues, ends and D or L forms follow the SMILES beside them.

System: influenza virus (A/Puerto Rico/8/34, PR8) expressing green fluorescent protein (PR8-GFP)
Format: cell-based

For `CC(C)C[C@@H](NC(=O)[C@@H](CC(C)C)NC(=O)[C@@H](CC(N)=O)NC(=O)[C@H](NC(=O)[C@@H](Cc1ccccc1)NC(=O)CNC(=O)[C@@H](Cc1ccc(O)cc1)NC(=O)CNC(=O)[C@@H](CCCNC(=N)N)NC(=O)[C@@H](CCCCN)NC(=O)[C@@H](CCCCN)NC(=O)[C@@H](CCCNC(=N)N)NC(=O)[C@@H](CCCNC(=N)N)NC(=O)[C@@H](CCC(N)=O)NC(=O)[C@@H](CCCNC(=N)N)NC(=O)[C@@H](CCCNC(=N)N)NC(=O)[C@H](N)CCCNC(=N)N)C(C)C)C(=O)N[C@H](Cc1ccccc1)C(=O)N[C@H](CC(C)C)C(=O)N[C@@H](C(=O)N[C@@H](C(=O)N[C@H](CCC(=O)O)C(=O)O)C(C)C)C(C)C` [TAT-Kα2] (H-[dR][dR][dR][dQ][dR][dR][dK][dK][dR]G[dY]G[dF][dV][dN][dL][dL][dF][dL][dV][dV][dE]-OH), the “inhibition of PR8-GFP virus infection” value was “significantly inhibited”.
